Measurements taken from ChEMBL document CHEMBL1201862, “PubChem BioAssay data set” (2004).
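96-well plates; 48 h exposure; 5 concentrations. Endpoints by linear interpolation between flanking doses. Not reached: highest tested concentration assigned. GI50 = concentration required for 50% inhibition of growth.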 Active and inactive are the calls of the source. Cut-off read from the data, not from the text of the source: active = GI50 up to about 1.1 µM and inactive = higher.

Key:
Assay in all cases: NCI anticancer screen, dose series, 48 h
786-0 = test system: 786-0
A498 = test system: A498
A549 = test system: A549
ACHN = test system: ACHN
BT-549 = test system: BT-549
CAKI-1 = test system: CAKI-1
CCRF-CEM = test system: CCRF-CEM
COLO 205 = test system: COLO 205
DLD-1 = test system: DLD-1
DMS-114 = test system: DMS-114
DMS-273 = test system: DMS-273
DU-145 = test system: DU-145
EKVX = test system: EKVX
HCC 2998 = test system: HCC 2998
HCT-116 = test system: HCT-116
HCT-15 = test system: HCT-15
HL-60 = test system: HL-60
HOP-18 = test system: HOP-18
HOP-62 = test system: HOP-62
HOP-92 = test system: HOP-92
HT-29 = test system: HT-29
Hs-578T = test system: Hs-578T
IGROV-1 = test system: IGROV-1
K562 = test system: K562
KM-20L2 = test system: KM-20L2
KM12 = test system: KM12
LOX IMVI = test system: LOX IMVI
LXFL 529 = test system: LXFL 529
M14 = test system: M14
M19-MEL = test system: M19-MEL
MCF7 = test system: MCF7
MDA-MB-231 = test system: MDA-MB-231
MDA-MB-435 = test system: MDA-MB-435
MDA-N = test system: MDA-N
MOLT-4 = test system: MOLT-4
Malme-3M = test system: Malme-3M
NCI-H226 = test system: NCI-H226
NCI-H23 = test system: NCI-H23
NCI-H460 = test system: NCI-H460
NCI-H522 = test system: NCI-H522
OVCAR-3 = test system: OVCAR-3
OVCAR-4 = test system: OVCAR-4
OVCAR-5 = test system: OVCAR-5
OVCAR-8 = test system: OVCAR-8
PC-3 = test system: PC-3
RPMI-8226 = test system: RPMI-8226
RXF 393 = test system: RXF 393
RXF 631 = test system: RXF 631
SF-268 = test system: SF-268
SF-295 = test system: SF-295
SF-539 = test system: SF-539
SK-MEL-28 = test system: SK-MEL-28
SK-MEL-2 = test system: SK-MEL-2
SK-MEL-5 = test system: SK-MEL-5
SK-OV-3 = test system: SK-OV-3
SN12C = test system: SN12C
SNB-19 = test system: SNB-19
SNB-75 = test system: SNB-75
SNB-78 = test system: SNB-78
SR = test system: SR
SW-620 = test system: SW-620
T47D = test system: T47D
TK-10 = test system: TK-10
U-251 = test system: U-251
UACC-257 = test system: UACC-257
UACC-62 = test system: UACC-62
UO-31 = test system: UO-31
XF498 = test system: XF498

## COc1cccc2c1C(=O)c1c(O)c3c(c(O)c1C2=O)C[C@@](O)(/C(C)=N\O)C[C@@H]3OC1CC(N)C(O)C(C)O1 (stereo partly drawn)
786-0
  GI50: 1060 nM (active)
A498
  GI50: 834 nM (active)
A549
  GI50: 968 nM (active)
ACHN
  GI50: 1900 nM (inactive)
BT-549
  GI50: 1720 nM (inactive)
CAKI-1
  GI50: 1930 nM (inactive)
CCRF-CEM
  GI50: 187 nM (active)
COLO 205
  GI50: 955 nM (active)
DLD-1
  GI50: 1950 nM (inactive)
DMS-114
  GI50: 371 nM (active)
DMS-273
  GI50: 454 nM (active)
DU-145
  GI50: 1720 nM (inactive)
EKVX
  GI50: 3190 nM (inactive)
HCC 2998
  GI50: 834 nM (active)
HCT-116
  GI50: 883 nM (active)
HCT-15
  GI50: 28700 nM
HL-60
  GI50: 218 nM (active)
HOP-18
  GI50: 2180 nM (inactive)
HOP-62
  GI50: 1240 nM (inactive)
HOP-92
  GI50: 1080 nM (active)
HT-29
  GI50: 1340 nM (inactive)
Hs-578T
  GI50: 1770 nM (inactive)
IGROV-1
  GI50: 760 nM (active)
K562
  GI50: 553 nM (active)
KM-20L2
  GI50: 3000 nM (inactive)
KM12
  GI50: 2390 nM (inactive)
LOX IMVI
  GI50: 388 nM (active)
LXFL 529
  GI50: 508 nM (active)
M14
  GI50: 2280 nM (inactive)
M19-MEL
  GI50: 743 nM (active)
MCF7
  GI50: 289 nM (active)
MDA-MB-231
  GI50: 2510 nM (inactive)
MDA-MB-435
  GI50: 8450 nM (inactive)
MDA-N
  GI50: 1880 nM (inactive)
MOLT-4
  GI50: 66.1 nM (active)
Malme-3M
  GI50: 755 nM (active)
NCI-H226
  GI50: 1810 nM (inactive)
NCI-H23
  GI50: 1260 nM (inactive)
NCI-H460
  GI50: 268 nM (active)
NCI-H522
  GI50: 315 nM (active)
OVCAR-3
  GI50: 1450 nM (inactive)
OVCAR-4
  GI50: 4460 nM (inactive)
OVCAR-5
  GI50: 2700 nM (inactive)
OVCAR-8
  GI50: 1150 nM (inactive)
PC-3
  GI50: 1360 nM (inactive)
RPMI-8226
  GI50: 592 nM (active)
RXF 393
  GI50: 1410 nM (inactive)
RXF 631
  GI50: 2240 nM (inactive)
SF-268
  GI50: 931 nM (active)
SF-295
  GI50: 1380 nM (inactive)
SF-539
  GI50: 931 nM (active)
SK-MEL-28
  GI50: 1640 nM (inactive)
SK-MEL-2
  GI50: 1100 nM (active)
SK-MEL-5
  GI50: 643 nM (active)
SK-OV-3
  GI50: 2230 nM (inactive)
SN12C
  GI50: 741 nM (active)
SNB-19
  GI50: 780 nM (active)
SNB-75
  GI50: 501 nM (active)
SNB-78
  GI50: 1280 nM (inactive)
SR
  GI50: 61.5 nM (active)
SW-620
  GI50: 504 nM (active)
T47D
  GI50: 723 nM (active)
TK-10
  GI50: 3240 nM (inactive)
U-251
  GI50: 766 nM (active)
UACC-257
  GI50: 1780 nM (inactive)
UACC-62
  GI50: 1120 nM (inactive)
UO-31
  GI50: 10000 nM (inactive)
XF498
  GI50: 210 nM (active)
